Earlier results as cited in article PMC8602434 (Drugs in R&D, 2021).

Experiments:
[1] = sc administration; cited from earlier work
[2] = sc, dose of 33 µmol/kg; cited from earlier work
MC1R = conditions: read-out: half maximal effective concentration (EC50); cited from earlier work

Which tmax [1] does the source give for bremelanotide here?
Its tmax is 0.5 to 1.0 h.

And the t½ [1]?
Its t½ is 1.9 to 2.7 h.

With `CCCC(=O)C1(c2ccccc2)CCN(C(=O)[C@@H](Cc2ccc(OC)cc2)NC(=O)[C@@H](N)Cc2cncn2C)CC1` [BMS-470539] as the compound, how does the Cmax [2] read?
The Cmax was 11 µM.

With “α-melanocyte-stimulating hormone [α-MSH]” as the compound, how does the EC50 (MC1R) read?
Its EC50 is 0.22 nM.
